According to article PMC10528299, “Targeting FAK/PYK2 with SJP1602 for Anti-Tumor Activity in Triple-Negative Breast Cancer” (Current Issues in Molecular Biology, 2023):

Experiments:
cKit(h) = target: T1, cKit(h) (Homo sapiens, UniProt P10721); experiment: Eurofins kinase profiling; format: biochemical; conditions: read-out: residual kinase activity cKit(h)
T1 construct: purchased Eurofins KinaseProfiler
Protocol: (§1) The kinase profiling analysis was performed at Eurofins (Poitiers, France). A total of 110 kinase assays were carried out according to Eurofins’ standard protocols. For protein kinase assays, the kinase activity was measured using Eurofins’ KinaseProfiler radiometric assay. In this assay, a panel of kinases was incubated with the test compound SJP1602 at a concentration of 1 µM, and the kinase activity was determined using radiolabeled phosphate as a substrate. Lipid and atypical kinase assays were conducted using Eurofins’ homogeneous time-resolved fluorescence assay. The same panel of kinases was incubated with SJP1602 at a concentration of 1 µM, and the activity of lipid and atypical kinases was measured using this assay.

Ron(h) = target: T2, Ron(h) (Homo sapiens, UniProt Q04912); experiment: Eurofins kinase profiling; format: biochemical; conditions: read-out: residual kinase activity Ron(h)
T2 construct: purchased Eurofins KinaseProfiler
Protocol: as §1

PKC μ(h) = target: T3, PKC μ(h) (Homo sapiens, UniProt Q15139); experiment: Eurofins kinase profiling; format: biochemical; conditions: read-out: residual kinase activity PKC μ(h)
T3 construct: purchased Eurofins KinaseProfiler
T3 sequence (Q15139 1-912): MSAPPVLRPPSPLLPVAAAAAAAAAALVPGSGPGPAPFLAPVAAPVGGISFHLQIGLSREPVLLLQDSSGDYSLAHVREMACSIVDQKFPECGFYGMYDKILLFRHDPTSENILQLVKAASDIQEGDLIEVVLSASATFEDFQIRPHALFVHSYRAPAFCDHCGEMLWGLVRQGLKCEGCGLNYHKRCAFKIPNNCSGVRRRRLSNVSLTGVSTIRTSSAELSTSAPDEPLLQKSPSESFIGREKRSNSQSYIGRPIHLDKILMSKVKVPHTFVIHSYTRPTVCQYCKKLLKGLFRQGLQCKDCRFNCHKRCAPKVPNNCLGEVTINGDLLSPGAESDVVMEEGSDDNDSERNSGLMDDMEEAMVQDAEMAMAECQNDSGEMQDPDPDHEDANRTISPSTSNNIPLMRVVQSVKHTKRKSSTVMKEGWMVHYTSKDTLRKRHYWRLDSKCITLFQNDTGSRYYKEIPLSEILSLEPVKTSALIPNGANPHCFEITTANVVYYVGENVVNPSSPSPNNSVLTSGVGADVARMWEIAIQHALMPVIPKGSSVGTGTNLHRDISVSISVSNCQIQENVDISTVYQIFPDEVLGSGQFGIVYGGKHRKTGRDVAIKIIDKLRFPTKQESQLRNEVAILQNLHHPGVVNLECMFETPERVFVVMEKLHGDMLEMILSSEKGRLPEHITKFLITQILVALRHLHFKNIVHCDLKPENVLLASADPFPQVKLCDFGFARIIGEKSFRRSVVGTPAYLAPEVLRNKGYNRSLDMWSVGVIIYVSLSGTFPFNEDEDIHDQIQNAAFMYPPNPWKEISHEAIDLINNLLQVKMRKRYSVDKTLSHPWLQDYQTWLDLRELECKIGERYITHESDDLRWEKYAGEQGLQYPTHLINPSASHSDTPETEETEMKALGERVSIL
Protocol: as §1

PAK4(h) = target: T4, PAK4(h) (Homo sapiens, UniProt O96013); experiment: Eurofins kinase profiling; format: biochemical; conditions: read-out: residual kinase activity PAK4(h)
T4 construct: purchased Eurofins KinaseProfiler
Protocol: as §1

PAK1(h) = target: T5, PAK1(h) (Homo sapiens, UniProt Q13153); experiment: Eurofins kinase profiling; format: biochemical; conditions: read-out: residual kinase activity PAK1(h)
T5 construct: purchased Eurofins KinaseProfiler
Protocol: as §1

Aurora-A(h) = target: T6, Aurora-A(h) (Homo sapiens, UniProt O14965); experiment: Eurofins kinase profiling; format: biochemical; conditions: read-out: residual kinase activity Aurora-A(h)
T6 construct: purchased Eurofins KinaseProfiler
T6 sequence (O14965 1-403): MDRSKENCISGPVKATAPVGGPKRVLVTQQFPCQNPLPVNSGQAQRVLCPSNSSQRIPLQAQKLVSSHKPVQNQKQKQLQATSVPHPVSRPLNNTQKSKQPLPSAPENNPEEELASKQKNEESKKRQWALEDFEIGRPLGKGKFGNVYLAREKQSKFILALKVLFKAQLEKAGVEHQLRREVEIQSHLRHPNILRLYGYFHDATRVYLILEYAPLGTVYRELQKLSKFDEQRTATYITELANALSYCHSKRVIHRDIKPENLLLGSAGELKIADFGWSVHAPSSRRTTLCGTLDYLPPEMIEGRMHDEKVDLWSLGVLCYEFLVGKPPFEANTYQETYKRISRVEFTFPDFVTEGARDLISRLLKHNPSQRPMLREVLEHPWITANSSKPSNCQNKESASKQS
Protocol: as §1

MELK(h) = target: T7, MELK(h) (Homo sapiens, UniProt Q14680); experiment: Eurofins kinase profiling; format: biochemical; conditions: read-out: residual kinase activity MELK(h)
T7 construct: purchased Eurofins KinaseProfiler
Protocol: as §1

FGFR3(h) = target: T8, FGFR3(h) (Homo sapiens, UniProt P22607); experiment: Eurofins kinase profiling; format: biochemical; conditions: read-out: residual kinase activity FGFR3(h)
T8 construct: purchased Eurofins KinaseProfiler
Protocol: as §1

MEK1(h) = target: T9, MEK1(h) (Homo sapiens, UniProt Q02750); experiment: Eurofins kinase profiling; format: biochemical; conditions: read-out: residual kinase activity MEK1(h)
T9 construct: purchased Eurofins KinaseProfiler
Protocol: as §1

BT-20 = experiment: 3D spheroid assay BT-20; format: cell-based; conditions: Homo sapiens, 96 h; BT-20, 4 days treatment; read-out: IC50 3D spheroid cell viability
Protocol: (§2) Breast cancer cell lines were cultured in medium with or without 2% Matrigel (Corning, NY, USA) for 3 days in each 96-well ultra-low attachment round plate to form a single spheroid at a density of 3 × 10^3 cells/well. SJP1602 was dissolved in DMSO and treated for 4 days at concentrations ranging from 200 nM to 20 μM. Cell viability was quantified according to the manufacturer’s instructions using a CellTiter-Glo 3D cell viability assay (Promega, Madison, WI, USA). Luminescence was measured using the Tecan Spark 10M.

HCC70 = experiment: 3D spheroid assay HCC70; format: cell-based; conditions: Homo sapiens, 96 h; HCC70, 4 days treatment; read-out: IC50 3D spheroid cell viability
Protocol: as §2

T2 sequence (Q04912 25-1400): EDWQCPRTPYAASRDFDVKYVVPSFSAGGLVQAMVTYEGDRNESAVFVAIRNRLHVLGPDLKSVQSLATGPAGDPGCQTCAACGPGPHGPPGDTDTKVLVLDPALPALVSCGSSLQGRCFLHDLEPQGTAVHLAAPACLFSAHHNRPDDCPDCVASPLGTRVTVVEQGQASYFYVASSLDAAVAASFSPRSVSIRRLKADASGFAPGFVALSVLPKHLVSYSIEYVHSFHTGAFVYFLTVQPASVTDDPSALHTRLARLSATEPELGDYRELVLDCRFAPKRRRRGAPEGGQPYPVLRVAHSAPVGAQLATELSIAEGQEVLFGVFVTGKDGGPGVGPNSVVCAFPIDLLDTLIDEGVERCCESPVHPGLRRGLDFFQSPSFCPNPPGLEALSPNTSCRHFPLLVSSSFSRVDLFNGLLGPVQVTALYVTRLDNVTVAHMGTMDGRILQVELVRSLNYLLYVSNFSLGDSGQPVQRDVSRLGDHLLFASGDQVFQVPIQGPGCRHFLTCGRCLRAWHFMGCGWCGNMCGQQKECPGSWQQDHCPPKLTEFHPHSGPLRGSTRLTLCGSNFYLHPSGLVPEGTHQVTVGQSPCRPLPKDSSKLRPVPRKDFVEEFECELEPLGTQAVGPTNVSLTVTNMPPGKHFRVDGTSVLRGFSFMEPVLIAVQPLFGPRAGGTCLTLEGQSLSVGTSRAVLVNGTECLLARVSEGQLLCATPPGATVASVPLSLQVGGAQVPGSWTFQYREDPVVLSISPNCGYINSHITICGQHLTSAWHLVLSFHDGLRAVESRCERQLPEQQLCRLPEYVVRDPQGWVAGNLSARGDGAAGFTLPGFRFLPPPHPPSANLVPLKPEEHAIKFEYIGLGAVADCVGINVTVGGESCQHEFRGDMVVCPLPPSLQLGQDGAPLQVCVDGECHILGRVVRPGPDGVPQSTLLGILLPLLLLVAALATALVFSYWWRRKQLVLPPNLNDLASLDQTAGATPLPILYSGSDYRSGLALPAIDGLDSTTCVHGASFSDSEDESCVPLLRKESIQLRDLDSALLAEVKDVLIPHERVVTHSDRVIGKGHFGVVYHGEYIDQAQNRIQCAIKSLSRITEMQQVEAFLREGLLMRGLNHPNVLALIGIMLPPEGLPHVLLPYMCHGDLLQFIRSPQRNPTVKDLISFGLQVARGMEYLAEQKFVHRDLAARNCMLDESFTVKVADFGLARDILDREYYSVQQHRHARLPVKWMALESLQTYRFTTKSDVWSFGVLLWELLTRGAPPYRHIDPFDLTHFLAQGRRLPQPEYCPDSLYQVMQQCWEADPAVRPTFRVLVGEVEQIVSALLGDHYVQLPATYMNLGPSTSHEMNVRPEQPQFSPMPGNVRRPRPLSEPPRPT
T9 sequence (Q02750 whole entry): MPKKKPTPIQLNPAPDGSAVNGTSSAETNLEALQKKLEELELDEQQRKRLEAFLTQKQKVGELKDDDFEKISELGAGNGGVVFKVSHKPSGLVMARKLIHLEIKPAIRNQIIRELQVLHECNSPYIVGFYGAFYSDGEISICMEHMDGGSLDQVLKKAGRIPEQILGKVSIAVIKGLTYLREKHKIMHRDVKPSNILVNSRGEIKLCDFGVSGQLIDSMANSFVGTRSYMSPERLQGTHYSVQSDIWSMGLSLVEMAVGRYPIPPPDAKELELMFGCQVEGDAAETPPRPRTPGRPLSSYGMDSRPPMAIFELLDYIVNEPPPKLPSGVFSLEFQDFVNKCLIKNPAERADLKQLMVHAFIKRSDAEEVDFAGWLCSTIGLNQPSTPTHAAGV
T1 sequence (P10721 26-976): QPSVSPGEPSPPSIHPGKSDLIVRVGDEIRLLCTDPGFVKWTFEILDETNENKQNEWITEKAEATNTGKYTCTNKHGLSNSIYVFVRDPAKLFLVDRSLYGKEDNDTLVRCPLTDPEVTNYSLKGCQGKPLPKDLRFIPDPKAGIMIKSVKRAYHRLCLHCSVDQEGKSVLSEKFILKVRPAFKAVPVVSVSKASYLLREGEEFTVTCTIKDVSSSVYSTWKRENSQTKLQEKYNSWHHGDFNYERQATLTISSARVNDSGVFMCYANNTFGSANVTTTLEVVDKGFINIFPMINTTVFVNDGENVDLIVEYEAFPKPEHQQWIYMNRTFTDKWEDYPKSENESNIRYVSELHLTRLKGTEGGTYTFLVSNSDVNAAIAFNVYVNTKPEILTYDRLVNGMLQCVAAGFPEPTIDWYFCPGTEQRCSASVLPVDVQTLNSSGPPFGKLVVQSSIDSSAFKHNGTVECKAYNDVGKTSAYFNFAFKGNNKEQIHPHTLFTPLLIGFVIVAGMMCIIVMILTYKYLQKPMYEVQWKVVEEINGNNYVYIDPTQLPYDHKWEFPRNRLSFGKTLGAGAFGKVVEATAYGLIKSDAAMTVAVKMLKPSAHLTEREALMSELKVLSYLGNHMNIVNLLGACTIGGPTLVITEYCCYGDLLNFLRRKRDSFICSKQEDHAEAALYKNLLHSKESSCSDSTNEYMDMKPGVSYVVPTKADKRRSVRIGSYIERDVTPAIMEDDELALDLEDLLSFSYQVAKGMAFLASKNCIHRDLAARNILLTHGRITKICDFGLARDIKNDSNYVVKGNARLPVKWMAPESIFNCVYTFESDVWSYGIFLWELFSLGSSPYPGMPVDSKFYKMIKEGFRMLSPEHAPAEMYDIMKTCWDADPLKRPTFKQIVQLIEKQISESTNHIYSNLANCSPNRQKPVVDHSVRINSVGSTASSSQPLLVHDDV
T7 sequence (Q14680 whole entry): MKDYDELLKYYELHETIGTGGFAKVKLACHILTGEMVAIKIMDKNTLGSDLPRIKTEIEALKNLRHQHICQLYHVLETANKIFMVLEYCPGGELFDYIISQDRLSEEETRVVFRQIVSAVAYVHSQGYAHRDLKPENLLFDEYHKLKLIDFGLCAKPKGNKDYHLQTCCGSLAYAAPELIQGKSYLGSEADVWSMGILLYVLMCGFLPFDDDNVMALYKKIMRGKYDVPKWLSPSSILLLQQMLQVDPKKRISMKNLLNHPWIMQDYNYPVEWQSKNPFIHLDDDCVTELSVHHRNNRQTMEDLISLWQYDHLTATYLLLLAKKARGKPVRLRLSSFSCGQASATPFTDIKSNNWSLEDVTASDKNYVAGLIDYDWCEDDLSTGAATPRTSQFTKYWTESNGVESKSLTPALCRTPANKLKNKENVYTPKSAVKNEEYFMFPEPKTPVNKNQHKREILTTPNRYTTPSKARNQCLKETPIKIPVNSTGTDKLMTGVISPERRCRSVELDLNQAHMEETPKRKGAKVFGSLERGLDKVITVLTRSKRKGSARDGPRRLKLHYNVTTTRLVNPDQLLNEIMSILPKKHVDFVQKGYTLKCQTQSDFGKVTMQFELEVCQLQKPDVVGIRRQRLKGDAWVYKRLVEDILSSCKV
T5 sequence (Q13153 whole entry): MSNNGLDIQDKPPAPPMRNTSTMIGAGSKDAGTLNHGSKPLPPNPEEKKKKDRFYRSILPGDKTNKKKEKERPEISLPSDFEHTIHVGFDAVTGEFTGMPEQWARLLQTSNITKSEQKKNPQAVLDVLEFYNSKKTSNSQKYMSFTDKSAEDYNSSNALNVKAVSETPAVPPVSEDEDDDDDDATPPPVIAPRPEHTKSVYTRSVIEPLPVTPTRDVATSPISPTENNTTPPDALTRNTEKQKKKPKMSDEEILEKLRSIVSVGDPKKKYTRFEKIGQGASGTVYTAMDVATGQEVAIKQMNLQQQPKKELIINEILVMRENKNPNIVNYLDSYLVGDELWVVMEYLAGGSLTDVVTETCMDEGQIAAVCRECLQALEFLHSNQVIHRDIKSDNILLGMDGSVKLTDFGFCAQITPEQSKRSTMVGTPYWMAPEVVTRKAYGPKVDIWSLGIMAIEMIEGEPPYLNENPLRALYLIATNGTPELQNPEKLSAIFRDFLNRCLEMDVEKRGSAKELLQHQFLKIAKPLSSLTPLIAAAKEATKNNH
T8 sequence (P22607 23-806): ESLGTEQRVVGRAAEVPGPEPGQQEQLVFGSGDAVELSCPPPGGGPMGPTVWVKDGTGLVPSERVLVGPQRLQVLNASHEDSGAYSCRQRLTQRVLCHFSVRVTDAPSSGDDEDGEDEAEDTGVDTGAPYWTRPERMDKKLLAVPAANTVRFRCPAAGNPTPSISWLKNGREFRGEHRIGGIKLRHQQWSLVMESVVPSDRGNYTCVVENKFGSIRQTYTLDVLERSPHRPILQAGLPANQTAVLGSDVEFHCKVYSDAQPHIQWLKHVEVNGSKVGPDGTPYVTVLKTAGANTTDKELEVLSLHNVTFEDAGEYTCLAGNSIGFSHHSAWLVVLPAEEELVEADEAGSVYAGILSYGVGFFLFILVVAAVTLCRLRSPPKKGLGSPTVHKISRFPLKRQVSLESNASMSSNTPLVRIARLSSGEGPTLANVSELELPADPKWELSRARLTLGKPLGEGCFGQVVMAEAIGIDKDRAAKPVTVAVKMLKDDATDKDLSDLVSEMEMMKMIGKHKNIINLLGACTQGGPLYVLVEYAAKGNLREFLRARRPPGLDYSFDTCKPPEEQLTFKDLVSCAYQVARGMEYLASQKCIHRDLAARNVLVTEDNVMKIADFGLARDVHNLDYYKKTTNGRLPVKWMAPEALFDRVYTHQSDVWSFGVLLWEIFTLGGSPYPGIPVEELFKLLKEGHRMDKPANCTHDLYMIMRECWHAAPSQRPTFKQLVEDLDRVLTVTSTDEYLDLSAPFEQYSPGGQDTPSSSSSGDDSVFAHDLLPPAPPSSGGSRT

remaining activity at 1 µM (cKit(h)) [%] | remaining activity at 1 µM (Ron(h)) [%] | remaining activity at 1 µM (PKC μ(h)) [%] | remaining activity at 1 µM (PAK4(h)) [%] | remaining activity at 1 µM (PAK1(h)) [%] | remaining activity at 1 µM (Aurora-A(h)) [%] | remaining activity at 1 µM (MELK(h)) [%] | remaining activity at 1 µM (FGFR3(h)) [%] | remaining activity at 1 µM (MEK1(h)) [%] | IC50 (BT-20) [µM] | Compound | IC50 (HCC70) [µM]
93 | 91 | 109 | 93 | 91 | 43 | 91 | 91 | 101 | > 10 | CONC(=O)c1ccccc1Nc1cc(Nc2cc(C)nn2C(C)C)ncc1Cl [GSK2256098] | > 10
80 | 72 | 100 | 42 | 79 | 12 | 9 | 44 | 93 | > 10 | CNC(=O)c1ccc(Nc2ncc(C(F)(F)F)c(NCc3nccnc3N(C)S(C)(=O)=O)n2)cc1 [VS-6063, Defactinib] | 8.18

Compound | remaining activity at 1 µM (cKit(h)) [%] | remaining activity at 1 µM (Ron(h)) [%] | remaining activity at 1 µM (PKC μ(h)) [%] | remaining activity at 1 µM (PAK4(h)) [%] | remaining activity at 1 µM (PAK1(h)) [%] | remaining activity at 1 µM (Aurora-A(h)) [%] | remaining activity at 1 µM (MELK(h)) [%] | remaining activity at 1 µM (FGFR3(h)) [%] | remaining activity at 1 µM (MEK1(h)) [%] | IC50 (BT-20) [µM] | IC50 (HCC70) [µM]
CNC(=O)c1cccc(C)c1Nc1nc(Nc2ccc(N3CCN(C4C5CC6CC4CC(O)(C6)C5)CC3)cc2OC)ncc1C(F)(F)F (stereo not drawn) [SJP1602, 2-((2-((4-(4-((2s,5r)-5-hydroxyadamantan-2-yl)piperazin-1-yl)-2-methoxyphenyl)amino)-5-(trifluoromethyl)pyrimidin-4-yl)amino)-N,3-dimethylbenzamide] | 97 | 75 | 113 | 85 | 119 | 48 | 74 | 86 | 98 | 2.53 | 1.45
